Measurements from patent publication US20240391926A1, “SPIROINDOLINONE COMPOUNDS AS Kv1.3 POTASSIUM SHAKER CHANNEL BLOCKERS” (D.E. Shaw Research, LLC, priority 2021, published 2024).

Target: T1, Kv1.3 potassium channel (Homo sapiens, UniProt P22001)
T1 construct: expressed in transfected cells
Assay: Kv1.3 potassium channel blocker activity, automated whole-cell patch clamp (Patchliner) in CHO-K1 cells stably expressing Kv1.3
Assay type: cell-based
Settings: 30 nM-100 μM
Protocol: This assay is used to evaluate the disclosed compounds' activities as Kv1.3 potassium channel blockers.
CHO-K1 cells stably expressing Kv1.3 were grown in DMEM containing 10% heat-inactivated FBS, 1 mM sodium pyruvate, 2 mM L-glutamine, and G418 (500 μg/ml). Cells were grown in culture flasks at 37° C. in a 5% CO2-humidified incubator.
The cells were bathed in an extracellular solution containing 140 mM NaCl, 4 mM KCl, 2 mM CaCl2), 1 mM MgCl2, 5 mM glucose, 10 mM HEPES; pH adjusted to 7.4 with NaOH; 295-305 mOsm. The internal solution contained 50 mM KCl, 10 mM NaCl, 60 mM KF, 20 mM EGTA, 10 mM HEPES; pH adjusted to 7.2 with KOH; 285 mOsm. All compounds were dissolved in DMSO at 30 mM. Compound stock solutions were freshly diluted with external solution to concentrations of 30 nM, 100 nM, 300 nM, 1 μM, 3 μM, 10 μM, 30 μM and 100 μM. The highest content of DMSO (0.3%) was present in 100 μM.
The currents were evoked by applying 100 ms depolarizing pulses from −90 mV (holding potential) to +40 mV were applied with 0.1 Hz frequency. Control (compound-free) and compound pulse trains for each compound concentration applied contained 20 pulses. 10-second breaks were used between pulse trains (see Table A below).
Whole-cell current recordings and compound application were enabled by means of an automated patch clamp platform Patchliner (Nanion Technologies GmbH). EPC 10 patch clamp amplifier (HEKA Elektronik Dr. Schulze GmbH) along with Patchmaster software (HEKA Elektronik Dr. Schulze GmbH) was used for data acquisition. Data were sampled at 10 kHz without filtering. Passive leak currents were subtracted online using a P/4 procedure (HEKA Elektronik Dr. Schulze GmbH). Increasing compound concentrations were applied consecutively to the same cell without washouts in between. Total compound incubation time before the next pulse train was not longer than 10 seconds. Peak current inhibition was observed during compound equilibration.
AUC and peak values were obtained with Patchmaster (HEKA Elektronik Dr. Schulze GmbH). To determine IC50, the last single pulse in the pulse train corresponding to a given compound concentration was used. Obtained AUC and peak values in the presence of compound were normalized to control values in the absence of compound. Using Origin (OridinLab), IC50 was derived from data fit to Hill equation: Icompound/Icontrol=(100−A)/(1+([compound]/IC50)nH)+A, where IC50 value is the concentration at which current inhibition is half-maximal, [compound] is the applied compound concentration, A is the fraction of current that is not blocked and nH is the Hill coefficient.

T1 sequence (P22001 whole entry): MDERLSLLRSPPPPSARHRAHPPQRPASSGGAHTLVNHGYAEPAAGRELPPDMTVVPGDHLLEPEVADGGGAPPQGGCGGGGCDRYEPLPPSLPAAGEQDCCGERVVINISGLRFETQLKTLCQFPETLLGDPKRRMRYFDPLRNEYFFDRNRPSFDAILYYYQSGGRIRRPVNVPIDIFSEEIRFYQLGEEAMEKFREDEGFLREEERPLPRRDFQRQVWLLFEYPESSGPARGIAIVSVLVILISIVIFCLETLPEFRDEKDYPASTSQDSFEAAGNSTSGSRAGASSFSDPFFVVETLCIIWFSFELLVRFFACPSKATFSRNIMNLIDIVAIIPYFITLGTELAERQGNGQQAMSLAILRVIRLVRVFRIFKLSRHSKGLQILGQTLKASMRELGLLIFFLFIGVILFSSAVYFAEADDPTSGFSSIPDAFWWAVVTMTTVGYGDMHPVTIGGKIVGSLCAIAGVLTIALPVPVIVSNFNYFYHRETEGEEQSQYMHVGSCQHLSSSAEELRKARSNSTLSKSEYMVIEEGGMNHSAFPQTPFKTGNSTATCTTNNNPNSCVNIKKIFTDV

IC50 [nM]	SMILES
< 1000	NC(=O)N1CC[C@]2(C1)C(=O)Nc1cc(Cl)c(Cl)cc12 (single isomer, unassigned) [Compound 154]
< 10000	O=C(CC1(O)CCC1)N1CC[C@]2(C1)C(=O)Nc1cc(Cl)c(Cl)cc12 [Compound 90, (S)-5,6-dichloro-1′-(2-(1-hydroxycyclobutyl)acetyl)spiro[indoline-3,3′-pyrrolidin]-2-one]
< 10000	Cn1cc(C(=O)N2CC[C@]3(C2)C(=O)Nc2cc(Cl)c(Cl)cc23)ccc1=O [Compound 83, (S)-5,6-dichloro-1′-(1-methyl-6-oxo-1,6-dihydropyridine-3-carbonyl)spiro[indoline-3,3′-pyrrolidin]-2-one]
< 3000	O=C(CO)N1CC[C@@]2(C1)C(=O)Nc1c2cc(Cl)c(Cl)c1Cl [Compound 122, (3R)-5,6,7-trichloro-1′-(2-hydroxyacetyl)-1H-spiro[indole-3,3′-pyrrolidin]-2-one]
< 1000	Nc1ccc(C(=O)N2CC[C@]3(C2)C(=O)Nc2cc(Cl)c(Cl)cc23)cn1 [Compound 84, (S)-1′-(6-aminonicotinoyl)-5,6-dichlorospiro[indoline-3,3′-pyrrolidin]-2-one]
< 1000	COC[C@H]1C[C@@H](C(=O)N2CC[C@]3(C2)C(=O)Nc2cc(Cl)c(Cl)cc23)CN1 [Compound 111, (S)-5,6-dichloro-1′-((3R,5R)-5-(methoxymethyl)pyrrolidine-3-carbonyl)spiro[indoline-3,3′-pyrrolidin]-2-one]
< 1000	CC(=O)N1CC[C@]2(C1)C(=O)Nc1cc(Cl)c(Cl)cc12 [Compound 152, (S)-1′-acetyl-5,6-dichlorospiro[indoline-3,3′-pyrrolidin]-2-one]
< 3000	O=C1Nc2cc(Cl)c(Cl)cc2[C@]12CCN(c1cn[nH]n1)C2 [Compound 146, (S)-5,6-dichloro-1′-(1H-1,2,3-triazol-4-yl)spiro[indoline-3,3′-pyrrolidin]-2-one]
< 1000	COCC(=O)N1CC[C@]2(C1)C(=O)Nc1cc(Cl)c(Cl)cc12 [Compound 147, (S)-5,6-dichloro-1′-(2-methoxyacetyl)spiro[indoline-3,3′-pyrrolidin]-2-one]
< 1000	O=C(c1cn[nH]n1)N1CC[C@]2(C1)C(=O)Nc1cc(Cl)c(Cl)cc12 [Compound 137, (S)-5,6-dichloro-1′-(1H-1,2,3-triazole-4-carbonyl)spiro[indoline-3,3′-pyrrolidin]-2-one]
< 1000	O=C([C@@H]1CC[C@H](O)[C@@H](O)C1)N1CC[C@]2(C1)C(=O)Nc1cc(Cl)c(Cl)cc12 (single isomer, unassigned; isomer 1) [Compound 103]
< 1000	C[C@@H]1C[C@]2(CN1C(=O)CO)C(=O)Nc1cc(Cl)c(Cl)cc12 (single isomer, unassigned; isomer 3) [Compound 125, 5,6-dichloro-1′-(2-hydroxyacetyl)-5′-methyl-1H-spiro[indole-3,3′-pyrrolidin]-2-one isomer 3]
< 10000	C[C@@H]1C[C@@]2(CN1C(=O)CO)C(=O)Nc1cc(Cl)c(Cl)cc12 (single isomer, unassigned; isomer 2) [Compound 124, 5,6-dichloro-1′-(2-hydroxyacetyl)-5′-methyl-1H-spiro[indole-3,3′-pyrrolidin]-2-one isomer 2]
< 10000	O=C(CO)N1CC[C@@]2(C1)C(=O)Nc1cc(Cl)c(Br)cc12 [Compound 117, (R)-5-bromo-6-chloro-1′-(2-hydroxyacetyl)spiro[indoline-3,3′-pyrrolidin]-2-one]

More lines, now with the values behind:

SMILES	IC50 [nM]
O=C(N1CC[C@]2(C1)C(=O)Nc1cc(Cl)c(Cl)cc12)C1(F)CCNCC1 [Compound 34, (S)-5,6-dichloro-1′-(4-fluoropiperidine-4-carbonyl)spiro[indoline-3,3′-pyrrolidin]-2-one]	< 1000
O=C1Nc2cc(Cl)c(Cl)cc2[C@]12CCN(C(=O)[C@]13CNCC1C3)C2 (single isomer, unassigned; isomer 1) [Compound 32]	< 1000
O=C(c1cnn(CCO)c1)N1CC[C@]2(C1)C(=O)Nc1cc(Cl)c(Cl)cc12 [Compound 78, (S)-5,6-dichloro-1′-(1-(2-hydroxyethyl)-1H-pyrazole-4-carbonyl)spiro[indoline-3,3′-pyrrolidin]-2-one]	< 10000
Cn1cc(C(=O)N2CC[C@]3(C2)C(=O)Nc2cc(Cl)c(Cl)cc23)cn1 [Compound 69, (S)-5,6-dichloro-1′-(1-methyl-1H-pyrazole-4-carbonyl)spiro[indoline-3,3′-pyrrolidin]-2-one]	< 10000
CC(C)[C@H](N)C(=O)N1CC[C@]2(C1)C(=O)Nc1cc(Cl)c(Cl)cc12 [Compound 47, (S)-1′-(L-valyl)-5,6-dichlorospiro[indoline-3,3′-pyrrolidin]-2-one]	< 3000
O=C1Nc2cc(Cl)c(Cl)cc2[C@]12CCN(C(=O)[C@H]1C[C@@H](O)C1)C2 [Compound 25, (S)-5,6-dichloro-1′-((1s,3R)-3-hydroxycyclobutane-1-carbonyl)spiro[indoline-3,3′-pyrrolidin]-2-one]	< 3000
O=C(N1CC[C@]2(C1)C(=O)Nc1cc(Cl)c(Cl)cc12)C1(O)CCNC1 (single isomer, unassigned; isomer 1) [Compound 30]	< 1000
O=C([C@H]1CNCCO1)N1CC[C@]2(C1)C(=O)Nc1cc(Cl)c(Cl)cc12 [Compound 10, (S)-5,6-dichloro-1′-((R)-morpholine-2-carbonyl)spiro[indoline-3,3′-pyrrolidin]-2-one]	< 1000
O=C(CC1CNC1)N1CC[C@]2(C1)C(=O)Nc1cc(Cl)c(Cl)cc12 [Compound 26, (S)-1′-(2-(azetidin-3-yl)acetyl)-5,6-dichlorospiro[indoline-3,3′-pyrrolidin]-2-one]	< 1000
CNCC(=O)N1CC[C@]2(C1)C(=O)Nc1cc(Cl)c(Cl)cc12 [Compound 18, (S)-5,6-dichloro-1′-(methylglycyl)spiro[indoline-3,3′-pyrrolidin]-2-one]	< 3000
CC(C)[C@@H](N)C(=O)N1CC[C@]2(C1)C(=O)Nc1cc(Cl)c(Cl)cc12 [Compound 46, (S)-1′-(D-valyl)-5,6-dichlorospiro[indoline-3,3′-pyrrolidin]-2-one]	< 3000
O=C(c1ccc(CO)nc1)N1CC[C@]2(C1)C(=O)Nc1cc(Cl)c(Cl)cc12 [Compound 68, (S)-5,6-dichloro-1′-(6-(hydroxymethyl)nicotinoyl)spiro[indoline-3,3′-pyrrolidin]-2-one]	< 3000
O=C(c1cc(CO)[nH]n1)N1CC[C@]2(C1)C(=O)Nc1cc(Cl)c(Cl)cc12 [Compound 79, (S)-5,6-dichloro-1′-(5-(hydroxymethyl)-1H-pyrazole-3-carbonyl)spiro[indoline-3,3′-pyrrolidin]-2-one]	< 3000
O=C([C@H]1CCCNC1)N1CC[C@]2(C1)C(=O)Nc1cc(Cl)c(Cl)cc12 [Compound 16, (S)-5,6-dichloro-1′-((S)-piperidine-3-carbonyl)spiro[indoline-3,3′-pyrrolidin]-2-one]	< 1000
O=C(N1CC[C@]2(C1)C(=O)Nc1cc(Cl)c(Cl)cc12)C12CNCC1C2 (single isomer, unassigned; isomer 2) [Compound 33]	< 1000
O=C(C1CNCC(F)(F)C1)N1CC[C@]2(C1)C(=O)Nc1cc(Cl)c(Cl)cc12 (stereo partly drawn) [Compound 50, (3S)-5,6-dichloro-1′-(5,5-difluoropiperidine-3-carbonyl)spiro[indoline-3,3′-pyrrolidin]-2-one]	< 1000
